Patent US20040254162A1, “Oxazolidinone derivatives as antimicrobials” (priority 2001, published 2004)
In brackets after ≈: the same amount, converted by molar mass.

Tests used:
P. acnes = test: Agar dilution MIC, anaerobes; assay type: cell-based; settings: Cutibacterium acnes, single isolates, anaerobic agar dilution; read-out: MIC P. acnes
Prevotella bivia = test: Agar dilution MIC, anaerobes; assay type: cell-based; settings: Prevotella bivia; single isolate, anaerobic agar dilution; read-out: MIC Prevotella bivia
[1] = tested on: Peptostreptococcus prevotii; test: Agar dilution MIC, anaerobes; assay type: cell-based; settings: single isolates, anaerobic agar dilution
[2] = tested on: Porphyromonas asaccharolytica; test: Agar dilution MIC, anaerobes; assay type: cell-based; settings: Porphyromonas asaccharolytica; single isolate, anaerobic agar dilution; read-out: MIC Porphyromonas asaccharolytica
Clostridium difficile = test: Agar dilution MIC, anaerobes; assay type: cell-based; settings: single isolates, anaerobic agar dilution
Clostridium camis = test: Agar dilution MIC, anaerobes; assay type: cell-based; settings: Clostridium; single isolates, anaerobic agar dilution; read-out: MIC Clostridium camis
[3] = tested on: Prevotella melaninogenica; test: Agar dilution MIC, anaerobes; assay type: cell-based; settings: Prevotella melaninogenica, single isolates, anaerobic agar dilution; read-out: MIC Prevotella melaninogenica
[4] = tested on: Prevotella (Bacteroides) disiens; test: Agar dilution MIC, anaerobes; assay type: cell-based; settings: single isolates, anaerobic agar dilution
Fusobacterium necrogenes = test: Agar dilution MIC, anaerobes; assay type: cell-based; settings: Fusobacterium necrogenes; single isolate, anaerobic agar dilution; read-out: MIC Fusobacterium necrogenes
anaerobic bacteria = test: Agar dilution method for anaerobic bacteria, summary; assay type: cell-based
Clostridium perfringens = test: microbe, parasite or virus in culture; assay type: cell-based
Porphyromonas gingivalis = test: Agar dilution MIC, anaerobes; assay type: cell-based; settings: Porphyromonas gingivalis; single isolate, anaerobic agar dilution; read-out: MIC Porphyromonas gingivalis
Prevotella intermedia = test: Agar dilution MIC, anaerobes; assay type: cell-based; settings: Prevotella intermedia, single isolates, anaerobic agar dilution; read-out: MIC Prevotella intermedia
S. pneumoniae = test: Summary of in vitro activity (MIC); settings: S. pneumoniae; for MIC50 / MIC90: Number 19
E. faecalis = test: Summary of in vitro activity (MIC); settings: E. faecalis; for MIC50 / MIC90: Number 7
S. pneum AB 34 = test: MIC, agar incorporation method; settings: agar incorporation
VRE 6A (Ent. faecium 6A) = test: MIC, agar incorporation method; settings: agar incorporation
G +ve bacteria = test: Summary of in vitro activity (MIC); settings: for MIC50 / MIC90: G +ve, Number 49; for Geometric Mean of in vitro activity (MIC): Gram + ve
S. aureus ATCC 25923 = test: MIC, agar incorporation method; settings: agar incorporation
MRSA 33 = test: MIC, agar incorporation method; settings: agar incorporation
MRSA 15187 = test: MIC, agar incorporation method; settings: agar incorporation
Strep. pne. ATCC 6303 = test: MIC, agar incorporation method; settings: agar incorporation
Ent. faecalis ATCC 29212 = test: MIC, agar incorporation method; settings: agar incorporation
S. aureus = test: Summary of in vitro activity (MIC); settings: S. aureus; for MIC50 / MIC90: Number 8
Strep. pyog. ATCC 19615 = test: MIC, agar incorporation method; settings: agar incorporation
MRSA 562 [5] = test: MIC, agar incorporation method; settings: for MIC: MRSA 562, Table 5
MRSA 562 [6] = test: In vivo activity against MRSA 562 (ED50); set-up: species or system Methicillin Resistant Staphylococcus aureus; settings: PO; MRSA 562 infection

| SMILES | Geometric Mean of in vitro activity (MIC) (S. pneumoniae) [µg/mL] | MIC50 (S. pneumoniae) [µg/mL] | MIC90 (S. pneumoniae) [µg/mL] | Geometric Mean of in vitro activity (MIC) (E. faecalis) [µg/mL] | MIC50 (E. faecalis) [µg/mL] | MIC90 (E. faecalis) [µg/mL] | MIC S. pneum AB 34 (S. pneum AB 34) [µg/mL] | MIC VRE 6A (VRE 6A (Ent. faecium 6A)) [µg/mL] | MIC50 (G +ve bacteria) [µg/mL] | MIC90 (G +ve bacteria) [µg/mL] | Geometric Mean of in vitro activity (MIC) (G +ve bacteria) [µg/mL] | MIC S. aureus 25923 (S. aureus ATCC 25923) [µg/mL] | MIC MRSA 33 (MRSA 33) [µg/mL] | MIC MRSA 15187 (MRSA 15187) [µg/mL] | MIC S. pneum 6303 (Strep. pne. ATCC 6303) [µg/mL] | MIC E. faecalis 29212 (Ent. faecalis ATCC 29212) [µg/mL] | Geometric Mean of in vitro activity (MIC) (S. aureus) [µg/mL] | MIC50 (S. aureus) [µg/mL] | MIC90 (S. aureus) [µg/mL] | MIC S. pyogenes 19615 (Strep. pyog. ATCC 19615) [µg/mL] | further results |
| --- | --- | --- | --- | --- | --- | --- | --- | --- | --- | --- | --- | --- | --- | --- | --- | --- | --- | --- | --- | --- | --- |
| CCC[C@@H]1C[C@@H](C(=O)N[C@@H]([C@H]2O[C@H](SC)[C@H](O)[C@@H](O)[C@H]2O)[C@H](C)Cl)N(C)C1 [Clindamycin] | – | – | – | – | – | – | – | – | – | – | – | – | – | – | – | – | – | – | – | – | MIC (P. acnes): 0.06 µg/mL (≈ 0.141 µM); MIC (Prevotella bivia): > 32 µg/mL; MIC ([1]; Anaerococcus prevotii, read-out: MIC Peptostreptococcus prevotii): 0.25 µg/mL (≈ 0.588 µM); MIC Peptostreptococcus prevotii [1]: 0.125 µg/mL (≈ 0.294 µM); MIC [2]: ≤ 0.016 µg/mL; MIC (Clostridium difficile; Clostridioides difficile, read-out: MIC Clostridium difficile): 2 µg/mL (≈ 4.71 µM); MIC Clostridium difficile (Clostridium difficile): 4 µg/mL (≈ 9.41 µM); MIC (Clostridium camis): 0.03 µg/mL (≈ 0.0706 µM); MIC [3]: ≤ 0.016 µg/mL; MIC Prevotella (Bacteroides) disiens [4]: 4 µg/mL (≈ 9.41 µM); MIC ([4]; read-out: MIC Prevotella (Bacteroides) disiens): 8 µg/mL (≈ 18.8 µM); MIC (Fusobacterium necrogenes): 0.03 µg/mL (≈ 0.0706 µM); MIC50 (anaerobic bacteria; 48 h): 0.125 µg/mL (≈ 0.294 µM); MIC90 (anaerobic bacteria; 48 h): 8 µg/mL (≈ 18.8 µM); Geometric Mean (anaerobic bacteria; anaerobes): 0.208 µg/mL; MIC Range (anaerobic bacteria; anaerobes): 0.008 to 64 µg/mL; MIC (Clostridium perfringens; Clostridium perfringens, read-out: MIC Clostridium perfringens, single isolates, anaerobic agar dilution): 1 µg/mL (≈ 2.35 µM); MIC Clostridium perfringens (Clostridium perfringens; single isolates, anaerobic agar dilution): 0.5 µg/mL (≈ 1.18 µM); MIC (Porphyromonas gingivalis): ≤ 0.016 µg/mL; MIC (Prevotella intermedia): ≤ 0.016 µg/mL |
| CC(=O)NC[C@H]1CN(c2ccc(N3CCN(C(=O)c4ccc([N+](=O)[O-])o4)CC3)c(F)c2)C(=O)O1 [Compound No. 06, (S)-N-[[3-Fluoro-4-[N-1[4-(5-nitro-2-furoyl)piperazinyl]phenyl]-2-oxo-5-oxazolidinyl]methyl]acetamide] | 1.27 | 2 (≈ 4.21 µM) | 2 (≈ 4.21 µM) | 0.92 | 1 (≈ 2.1 µM) | 1 (≈ 2.1 µM) | 2 (≈ 4.21 µM) | 1 (≈ 2.1 µM) | 1 (≈ 2.1 µM) | 2 (≈ 4.21 µM) | 0.79 | 1 (≈ 2.1 µM) | 0.5 (≈ 1.05 µM) | 0.5 (≈ 1.05 µM) | 2 (≈ 4.21 µM) | 1 (≈ 2.1 µM) | 0.74 | 1 (≈ 2.1 µM) | 1 (≈ 2.1 µM) | 2 (≈ 4.21 µM) | MIC (MRSA 562 [5]): 1 µg/mL (≈ 2.1 µM); ED50 (mg/kg body weight) PO (MRSA 562 [6]): >25 mg/kg body weight |
| CC(=O)NC[C@H]1CN(c2ccc(N3CCN(Cc4ccc([N+](=O)[O-])o4)CC3)c(F)c2)C(=O)O1 [Compound No. 15, (S)-N-[[3-[3-fluoro-4-[N-1-[4-{2-furyl-(5-nitro)methyl}]piperazinyl]phenyl]-2-oxo-5-oxazolidinyl]methyl]acetamide] | 1.04 | 2 (≈ 4.33 µM) | 4 (≈ 8.67 µM) | 1.6 | 2 (≈ 4.33 µM) | 2 (≈ 4.33 µM) | 2 (≈ 4.33 µM) | 1 (≈ 2.17 µM) | 1 (≈ 2.17 µM) | 2 (≈ 4.33 µM) | 1.08 | 2 (≈ 4.33 µM) | 2 (≈ 4.33 µM) | 2 (≈ 4.33 µM) | 1 (≈ 2.17 µM) | 2 (≈ 4.33 µM) | 1.63 | 2 (≈ 4.33 µM) | 2 (≈ 4.33 µM) | 1 (≈ 2.17 µM) | MIC (MRSA 562 [5]): 2 µg/mL (≈ 4.33 µM); MIC MRSA 562 (MRSA 562 [5]; agar incorporation, Table 1): 2 µg/mL (≈ 4.33 µM); ED50 (mg/kg body weight) PO (MRSA 562 [6]): 4.33 mg/kg body weight |
